Source: US9115143B2, “Substituted indole derivatives as gamma secretase modulators” (Janssen Pharmaceuticals, Inc., priority 2011, dated 2015)

Experiments:
Aβtotal = assay: In vivo efficacy B-1a/B-2a: brain soluble Aβtotal in non-transgenic rodents, ELISA; parameters: species or system mouse; conditions: dose 30 mg/kg oral dosing, brain soluble fraction, untreated animals (Ctrl) set at 100; for response vs control in vivo at 30 mg/kg: Mus musculus, po, 4 h, read-out: Aβtotal (% vs Ctrl)_Mean; for Aβtotal (% vs Ctrl)_Mean: 30 mg/kg
Source text: (§1) To determine whether acute administration of an Aβ42 lowering agent would reduce Aβ42 levels in vivo, non-transgenic rodents, e.g. mice or rats were used. Animals treated with the Aβ42 lowering agent were examined and compared to those untreated or treated with vehicle and brain levels of soluble Aβ42 and total Aβ were quantitated by standard techniques, for example, using ELISA. Treatment periods varied from hours (h) to days and were adjusted based on the results of the Aβ42 lowering once a time course of onset of effect could be established.
(§2) A typical protocol for measuring Aβ42 lowering in vivo is shown but it is only one of many variations that could be used to optimize the levels of detectable Aβ. For example, Aβ42 lowering compounds were formulated in 20% of Captisol® (a sulfobutyl ether of β-cyclodextrin) in water or 20% hydroxypropyl β cyclodextrin. The Aβ42 lowering agents were administered as a single oral dose or by any acceptable route of administration to overnight fasted animals. After 4 h, the animals were sacrificed and Aβ42 levels were analysed.
(§3) Blood was collected by decapitation and exsanguinations in EDTA-treated collection tubes. Blood was centrifuged at 1900 g for 10 minutes (min) at 4° C. and the plasma recovered and flash frozen for later analysis. The brain was removed from the cranium and hindbrain. The cerebellum was removed and the left and right hemisphere were separated. The left hemisphere was stored at −18° C. for quantitative analysis of test compound levels. The right hemisphere was rinsed with phosphate-buffered saline (PBS) buffer and immediately frozen on dry ice and stored at −80° C. until homogenization for biochemical assays.
(§4) Mouse brains from non-transgenic animals were resuspended in 8 volumes of 0.4% DEA (diethylamine)/50 mM NaCl containing protease inhibitors (Roche-11873580001 or 04693159001) per gram of tissue, e.g. for 0.158 g brain, add 1.264 mL of 0.4% DEA. All samples were homogenized in the FastPrep-24 system (MP Biomedicals) using lysing matrix D (MPBio #6913-100) at 6 m/s for 20 seconds. Homogenates were centrifuged at 20800×g for 5 min and supernatants collected. Supernatants were centrifuged at 221.300×g for 50 min. The resulting high speed supernatants were then transferred to fresh eppendorf tubes. Nine parts of supernatant were neutralized with 1 part 0.5 M Tris-HCl pH 6.8 and used to quantify Aβtotal and Aβ42.
To quantify the amount of Aβtotal and Aβ42 in the soluble fraction of the brain homogenates, Enzyme-Linked-Immunosorbent-Assays were used. Briefly, the standards (a dilution of synthetic Aβ1-40 and Aβ1-42, Bachem) were prepared in 1.5 mL Eppendorf tube in Ultraculture, with final concentrations ranging from 10000 to 0.3 pg/mL. The samples and standards were co-incubated with HRPO-labelled N-terminal antibody JRF/rAμ/2 for Aβ42 detection and with the biotinylated mid-domain antibody 4G8 for Aβtotal detection. 50 μl of conjugate/sample or conjugate/standards mixtures were then added to the antibody-coated plate (the capture antibodies selectively recognize the C-terminal end of Aβ42, antibody JRF/cAβ42/26, for Aβ42 detection and the N-terminus of AB, antibody JRF/rAβ/2, for Aβtotal detection). The plate was allowed to incubate overnight at 4° C. in order to allow formation of the antibody-amyloid complex. Following this incubation and subsequent wash steps the ELISA for Aβ42 quantification was finished by addition of Quanta Blu fluorogenic peroxidase substrate according to the manufacturer's instructions (Pierce Corp., Rockford, Ill.). A reading was performed after 10 to 15 min (excitation 320 nm/emission 420 nm).
For Aβtotal detection, a Streptavidine-Peroxidase-Conjugate was added, followed 60 min later by an additional wash step and addition of Quanta Blu fluorogenic peroxidase substrate according to the manufacturer's instructions (Pierce Corp., Rockford, Ill.). A reading was performed after 10 to 15 min (excitation 320 nm/emission 420 nm). […]

Aβ38 = assay: In vivo efficacy B-2a: brain soluble Aβ38 in non-transgenic rodents, ELISA; parameters: species or system mouse; conditions: dose 30 mg/kg oral dosing, brain soluble fraction, untreated animals (Ctrl) set at 100; for response vs control in vivo at 30 mg/kg: Mus musculus, po, read-out: Aβ38 (% vs Ctrl)_Mean; for Aβ38 (% vs Ctrl)_Mean: 30 mg/kg
Source text: Aβ38 increasing agents can be administered in any standard form using any standard method. For example, but not limited to, Aβ38 increasing agents can be in the form of liquid, tablets or capsules that are taken orally or by injection.
as §1, with “Aβ38 increasing agents” for “Aβ42 lowering agent”, “increase Aβ38” for “reduce Aβ42”, “Aβ38” for “Aβ42”, “Aβ38 increase” for “Aβ42 lowering”
as §2, with “measuring Aβ38 increase” for “measuring Aβ42 lowering”, “example, Aβ38 increasing agents” for “example, Aβ42 lowering compounds”, “The Aβ38 increasing” for “The Aβ42 lowering”, “and Aβ38” for “and Aβ42”
as §3
as §4, with “Aβ38.” for “Aβ42.”
To quantify the amount of Aβtotal and Aβ38 in the soluble fraction of the brain homogenates, Enzyme-Linked-Immunosorbent-Assays were used. Briefly, the standards (a dilution of synthetic Aβ1-40 and Aβ1-38, ANASPEC) were prepared in 1.5 mL Eppendorf tube in Ultraculture, with final concentrations ranging from 10000 to 0.3 pg/mL. The samples and standards were co-incubated with HRPO-labelled N-terminal antibody for Aβ38 detection and with the biotinylated mid-domain antibody 4G8 for Aβtotal detection. 50 μl of conjugate/sample or conjugate/standards mixtures were then added to the antibody-coated plate (the capture antibodies selectively recognize the C-terminal end of Aβ38, antibody J&JPRD/Aβ38/5, for Aβ38 detection and the N-terminus of Aβ, antibody JRF/rAβ/2, for Aβtotal detection). The plate was allowed to incubate overnight at 4° C. in order to allow formation of the antibody-amyloid complex. Following this incubation and subsequent wash steps the ELISA for Aβ38 quantification was finished by addition of Quanta Blu fluorogenic peroxidase substrate according to the manufacturer's instructions (Pierce Corp., Rockford, Ill.). A reading was performed after 10 to 15 min (excitation 320 nm/emission 420 nm). […]

Structure (SMILES) | response vs control in vivo at 30 mg/kg (Aβtotal) [%] | response vs control in vivo at 30 mg/kg (Aβ38) [%] | Aβtotal (% vs Ctrl)_Mean (Aβtotal) [% vs Ctrl] | Aβ38 (% vs Ctrl)_Mean (Aβ38) [% vs Ctrl]
Cc1cn(-c2ccc3[nH]c(-c4nc5n(n4)CCCC5c4ccc(F)cc4C)cc3c2)cn1 (single isomer, unassigned) [Compound 77, 8-(4-fluoro-2-methylphenyl)-5,6,7,8-tetrahydro-2-[5-(4-methyl-1H-imidazol-1-yl)-1H-indol-2-yl]-[1,2,4]triazolo[1,5-a]pyridine] | 102 | 168 |  | 
Cc1cc(F)ccc1C1OCCn2cc(-c3cc4nc(-c5cnn(C)c5)ccc4[nH]3)nc21 (single isomer, unassigned) [Compound 102, 8-(4-fluoro-2-methylphenyl)-5,6-dihydro-2-[5-(1-methyl-1H-pyrazol-4-yl)-1H-pyrrolo[3,2-b]pyridin-2-yl]-8H-imidazo[2,1-c][1,4]oxazine] | 121 | 82 |  | 
COc1c(C#N)ccc2[nH]c(-c3nc4n(n3)CCOC4c3c(F)cccc3Cl)cc12 (single isomer, unassigned) [Compound 117, 2-[8-(2-chloro-6-fluorophenyl)-5,6-dihydro-8H-[1,2,4]triazolo[5,1-c][1,4]oxazin-2-yl]-4-methoxy-1H-indole-5-carbonitrile] | 103 | 106 |  | 
Cc1cc(F)ccc1C1CCCn2nc(-c3[nH]c4ccc(C#N)cc4c3F)nc21 (single isomer, unassigned) [Compound 182, 3-fluoro-2-[8-(4-fluoro-2-methylphenyl)-5,6,7,8-tetrahydro[1,2,4]triazolo[1,5-a]pyridin-2-yl]-1H-indole-5-carbonitrile] | 118 | 132 |  | 
Cc1cc(F)ccc1C1CCCn2cc(-c3cc4cc(C#N)ccc4[nH]3)nc21 (stereo not drawn) [Compound 4, 2-[8-(4-fluoro-2-methylphenyl)-5,6,7,8-tetrahydroimidazo[1,2-a]pyridin-2-yl]-1H-indole-5-carbonitrile] |  |  | 82 | 141
Cc1cn(-c2ccc3[nH]c(-c4nc5n(n4)CCCC5c4ccccc4C)cc3n2)cn1.Cl (stereo not drawn) [Compound 5, 5,6,7,8-tetrahydro-2-[5-(4-methyl-1H-imidazol-1-yl)-1H-pyrrolo[3,2-b]pyridin-2-yl]-8-(2-methylphenyl)-[1,2,4]triazolo[1,5-a]pyridine] | 80 | 123 |  | 
Cc1cc(-c2ccc3[nH]c(-c4nc5n(n4)CCCC5c4ccccc4C)cc3n2)ccn1 (stereo not drawn) [Compound 6, 5,6,7,8-tetrahydro-8-(2-methylphenyl)-2-[5-(2-methyl-4-pyridinyl)-1H-pyrrolo[3,2-b]pyridin-2-yl]-[1,2,4]triazolo[1,5-a]pyridine] | 87 | 78 |  | 
COc1c(C#N)ccc2[nH]c(-c3nc4n(n3)CCCC4c3ccccc3C(F)(F)F)cc12 (stereo not drawn) [Compound 7, 4-methoxy-2-[5,6,7,8-tetrahydro-8-[2-(trifluoromethyl)phenyl][1,2,4]triazolo[1,5-a]pyridin-2-yl]-1H-indole-5-carbonitrile] | 96 | 120 |  | 
Cc1cn(-c2ccc3[nH]c(-c4nc5n(n4)CCCC5c4ccccc4C(F)(F)F)cc3c2)cn1 (stereo not drawn) [Compound 8, 5,6,7,8-tetrahydro-2-[5-(4-methyl-1H-imidazol-1-yl)-1H-indol-2-yl]-8-[2-(trifluoromethyl)phenyl]-[1,2,4]triazolo[1,5-a]pyridine] | 86 | 181 |  | 
Cc1cc(F)ccc1C1CCCn2nc(-c3cc4cc(C#N)ccc4[nH]3)nc21 (stereo not drawn) [Compound 9, 2-[8-(4-fluoro-2-methylphenyl)-5,6,7,8-tetrahydro[1,2,4]triazolo[1,5-a]pyridin-2-yl]-1H-indole-5-carbonitrile] |  |  | 97 | 87
Cc1cc(F)ccc1C1CCCn2nc(-c3cc4cc(C#N)ccc4[nH]3)nc21 (stereo not drawn) [Compound 10, 2-[8-(4-fluoro-2-methylphenyl)-5,6,7,8-tetrahydro[1,2,4]triazolo[1,5-a]pyridin-2-yl]-1H-indole-5-carbonitrile] | 105 |  |  | 115
Cc1ccccc1C1CCCn2nc(-c3cc4cc(C#N)ccc4[nH]3)nc21 (stereo not drawn) [Compound 12, 2-[5,6,7,8-tetrahydro-8-(2-methylphenyl)[1,2,4]triazolo[1,5-a]pyridin-2-yl]-1H-indole-5-carbonitrile] |  |  | 91 | 96
Cc1ccccc1C1CCCn2nc(-c3cc4cc(C#N)ccc4[nH]3)nc21 (stereo not drawn) [Compound 13, 2-[5,6,7,8-tetrahydro-8-(2-methylphenyl)[1,2,4]triazolo[1,5-a]pyridin-2-yl]-1H-indole-5-carbonitrile] | 80 | 116 |  | 
COc1c(C#N)ccc2[nH]c(-c3nc4n(n3)CCOC4c3ccc(F)cc3C)cc12 (stereo not drawn) [Compound 114, 2-[8-(4-fluoro-2-methylphenyl)-5,6-dihydro-8H-[1,2,4]triazolo[5,1-c][1,4]oxazin-2-yl]-4-methoxy-1H-indole-5-carbonitrile] |  |  |  | 88
